Target: T1, estrogen receptor (Homo sapiens, UniProt P03372)
T1 construct: endogenous in cells; host or cells: ECC-1 cells
T1 sequence (P03372 1-595): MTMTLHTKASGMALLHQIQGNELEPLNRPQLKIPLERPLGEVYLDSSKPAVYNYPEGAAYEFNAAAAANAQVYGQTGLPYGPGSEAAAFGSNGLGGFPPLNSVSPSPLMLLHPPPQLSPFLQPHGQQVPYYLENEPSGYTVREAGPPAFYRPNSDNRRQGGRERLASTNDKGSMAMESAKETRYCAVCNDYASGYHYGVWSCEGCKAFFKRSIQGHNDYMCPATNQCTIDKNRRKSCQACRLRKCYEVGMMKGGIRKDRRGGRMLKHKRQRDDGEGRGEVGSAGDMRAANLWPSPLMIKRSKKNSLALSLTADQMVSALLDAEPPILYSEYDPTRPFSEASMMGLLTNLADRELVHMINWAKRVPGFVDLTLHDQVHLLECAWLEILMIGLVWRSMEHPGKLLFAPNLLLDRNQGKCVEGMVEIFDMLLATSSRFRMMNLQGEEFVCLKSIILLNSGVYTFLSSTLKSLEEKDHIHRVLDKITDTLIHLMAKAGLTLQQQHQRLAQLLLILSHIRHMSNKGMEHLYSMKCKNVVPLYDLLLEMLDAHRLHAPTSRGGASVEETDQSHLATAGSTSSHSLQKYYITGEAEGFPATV
Experiment: Alkaline phosphatase (AP) assay in ECC-1 cells, agonist mode (no E2) and antagonist mode (500 pM E2)
Format: cell-based
Settings: 3 days, AP activity normalized to 500 pM E2 alone, agonist mode without E2, antagonist mode with 500 pM E2
Description: ECC-1 cells were trypsinized and resuspended in hormone-depleted media and plated at a density of 15 k cells per well into a 96-well plate for at least 4 hours. Cells were treated with test compounds in the absence of E2 (for agonist mode) or in the presence of 500 pM E2 (for antagonist mode) for 3 days and plates were subsequently frozen at −80° C. Thawed plates were incubated with a chromogenic substrate of AP, p-nitrophenyl phosphate (Thermo Fisher Scientific), for 40 minutes at 42° C., and absorbances were read at 405 nm. AP activity was normalized to the activity of 500 pM E2 alone.
The compound numbers correspond to the compound numbers of Table 1 and 2. Compounds having an activity designated as “+” provided estrogen receptor agonism having (i) at least 80% increase in the E2-normalized signal in the AP assay (agonist mode) and (ii) no more than 80% reduction in the E2-normalized signal in the AP assay (antagonist mode). Compounds having an activity designated as “++” provided estrogen receptor antagonism having (i) between 10% and 80% increase in the E2-normalized signal in the AP assay (agonist mode) and (ii) between 10% and 80% reduction in the E2-normalized signal in the AP assay (antagonist mode).

| Compound | Activity (estrogen receptor modulation, agonism and antagonism) |
| --- | --- |
| CC1CN(CCCc2ccc([C@@H]3c4[nH]c5ccccc5c4C[C@@H](C)N3CC(C)(C)F)s2)C1 [Example I-19, 1-(3-{5-[(1S,3R)-2-(2-fluoro-2-methylpropyl)-3-methyl-1H,2H,3H,4H,9H-pyrido[3,4-b]indol-1-yl]thiophen-2-yl}propyl)-3-methylazetidine] | ++ (estrogen receptor antagonism having (i) between 10% and 80% increase in the E2-normalized signal in the AP assay (agonist mode) and (ii) between 10% and 80% reduction in the E2-normalized signal in the AP assay (antagonist mode)) |
| Cc1cc([C@@H]2c3[nH]c4ccccc4c3C[C@@H](C)N2CC(C)(C)F)sc1CC1CN(CCCF)C1 [Example I-9, (1S,3R)-2-(2-fluoro-2-methylpropyl)-1-(5-((1-(3-fluoropropyl)azetidin-3-yl)methyl)-4-methylthiophen-2-yl)-3-methyl-2,3,4,9-tetrahydro-1H-pyrido[3,4-b]indole] | ++ (estrogen receptor antagonism having (i) between 10% and 80% increase in the E2-normalized signal in the AP assay (agonist mode) and (ii) between 10% and 80% reduction in the E2-normalized signal in the AP assay (antagonist mode)) |
| C[C@@H]1Cc2c([nH]c3ccccc23)[C@@H](c2ncc(CC3CN(CCCF)C3)s2)N1CC(F)F [Example I-31] | ++ (estrogen receptor antagonism having (i) between 10% and 80% increase in the E2-normalized signal in the AP assay (agonist mode) and (ii) between 10% and 80% reduction in the E2-normalized signal in the AP assay (antagonist mode)) |
| C[C@@H]1Cc2c([nH]c3ccccc23)[C@@H](c2cnc(C[C@@H]3CCN(CCCF)C3)s2)N1CC(F)F [Example I-41, 5-[(1S,3R)-2-(2,2-difluoroethyl)-3-methyl-1,3,4,9-tetrahydropyrido[3,4-b]indol-1-yl]-2-[[(3S)-1-(3-fluoropropyl)pyrrolidin-3-yl]methyl]thiazole] | ++ (estrogen receptor antagonism having (i) between 10% and 80% increase in the E2-normalized signal in the AP assay (agonist mode) and (ii) between 10% and 80% reduction in the E2-normalized signal in the AP assay (antagonist mode)) |
| C[C@@H]1Cc2c([nH]c3ccccc23)[C@@H](c2ccc(C3CCN(CCCF)CC3)s2)N1CC(C)(C)F [Example I-71, (1S,3R)-2-(2-fluoro-2-methyl-propyl)-1-[5-[1-(3-fluoropropyl)-4-piperidyl]-2-thienyl]-3-methyl-1,3,4,9-tetrahydropyrido[3,4-b]indole] | + (estrogen receptor agonism having (i) at least 80% increase in the E2-normalized signal in the AP assay (agonist mode) and (ii) no more than 80% reduction in the E2-normalized signal in the AP assay (antagonist mode)) |
| C[C@@H]1Cc2c([nH]c3ccccc23)[C@@H](c2ccc(CC3CN(CCCF)C3)s2)N1CC(F)(F)CF [Example I-23, (1S,3R)-1-(5-((1-(3-fluoropropyl)azetidin-3-yl)methyl)thiophen-2-yl)-3-methyl-2-(2,2,3-trifluoropropyl)-2,3,4,9-tetrahydro-1H-pyrido[3,4-b]indole] | ++ (estrogen receptor antagonism having (i) between 10% and 80% increase in the E2-normalized signal in the AP assay (agonist mode) and (ii) between 10% and 80% reduction in the E2-normalized signal in the AP assay (antagonist mode)) |
| C[C@@H]1Cc2c([nH]c3ccccc23)[C@@H](c2cnc(C[C@H]3CCN(CCCF)C3)s2)N1CC(F)F [Example I-30, 5-((1S,3R)-2-(2,2-difluoroethyl)-3-methyl-2,3,4,9-tetrahydro-1H-pyrido[3,4-b]indol-1-yl)-2-(((R)-1-(3-fluoropropyl)pyrrolidin-3-yl)methyl)thiazole] | ++ (estrogen receptor antagonism having (i) between 10% and 80% increase in the E2-normalized signal in the AP assay (agonist mode) and (ii) between 10% and 80% reduction in the E2-normalized signal in the AP assay (antagonist mode)) |
| CCN1CCN(c2ccc([C@@H]3c4[nH]c5ccccc5c4C[C@@H](C)N3CC(C)(C)F)s2)CC1 [Example I-74, (1S,3R)-1-[5-(4-ethylpiperazin-1-yl)-2-thienyl]-2-(2-fluoro-2-methyl-propyl)-3-methyl-1,3,4,9-tetrahydropyrido[3,4-b]indole] | + (estrogen receptor agonism having (i) at least 80% increase in the E2-normalized signal in the AP assay (agonist mode) and (ii) no more than 80% reduction in the E2-normalized signal in the AP assay (antagonist mode)) |
| CCCN1CC(Sc2ccc([C@@H]3c4[nH]c5ccccc5c4C[C@@H](C)N3CC(C)(C)F)s2)C1 [Example I-62, 3-({5-[(1S,3R)-2-(2-fluoro-2-methylpropyl)-3-methyl-1H,2H,3H,4H,9H-pyrido[3,4-b]indol-1-yl]thiophen-2-yl}sulfanyl)-1-propylazetidine] | ++ (estrogen receptor antagonism having (i) between 10% and 80% increase in the E2-normalized signal in the AP assay (agonist mode) and (ii) between 10% and 80% reduction in the E2-normalized signal in the AP assay (antagonist mode)) |
| C[C@@H]1Cc2c([nH]c3ccccc23)[C@@H](c2cc(F)c(CC3CN(CCCF)C3)s2)N1CC(C)(C)F [Example I-13, (1S,3R)-2-(2-fluoro-2-methylpropyl)-1-(4-fluoro-5-((1-(3-fluoropropyl)azetidin-3-yl)methyl)thiophen-2-yl)-3-methyl-2,3,4,9-tetrahydro-1H-pyrido[3,4-b]indole] | ++ (estrogen receptor antagonism having (i) between 10% and 80% increase in the E2-normalized signal in the AP assay (agonist mode) and (ii) between 10% and 80% reduction in the E2-normalized signal in the AP assay (antagonist mode)) |
| COCCCN1CC(Cc2ccc([C@@H]3c4[nH]c5ccccc5c4C[C@@H](C)N3CC(C)(C)F)s2)C1 [Example I-54, (1S,3R)-2-(2-fluoro-2-methyl-propyl)-1-[5-[[1-(3-methoxypropyl)azetidin-3-yl]methyl]-2-thienyl]-3-methyl-1,3,4,9-tetrahydropyrido[3,4-b]indole] | + (estrogen receptor agonism having (i) at least 80% increase in the E2-normalized signal in the AP assay (agonist mode) and (ii) no more than 80% reduction in the E2-normalized signal in the AP assay (antagonist mode)) |
| CCCN1CC(Cc2cc(F)c([C@@H]3c4[nH]c5ccccc5c4C[C@@H](C)N3CC(C)(C)F)s2)C1 [Example I-11, 3-({4-fluoro-5-[(1S,3R)-2-(2-fluoro-2-methylpropyl)-3-methyl-1H,2H,3H,4H,9H-pyrido[3,4-b]indol-1-yl]thiophen-2-yl}methyl)-1-propylazetidine] | ++ (estrogen receptor antagonism having (i) between 10% and 80% increase in the E2-normalized signal in the AP assay (agonist mode) and (ii) between 10% and 80% reduction in the E2-normalized signal in the AP assay (antagonist mode)) |
| CCN1CCC(c2ccc([C@@H]3c4[nH]c5ccccc5c4C[C@@H](C)N3CC(C)(C)F)s2)CC1 [Example I-69, (1S,3R)-1-(5-(1-ethylpiperidin-4-yl)thiophen-2-yl)-2-(2-fluoro-2-methylpropyl)-3-methyl-2,3,4,9-tetrahydro-1H-pyrido[3,4-b]indole] | ++ (estrogen receptor antagonism having (i) between 10% and 80% increase in the E2-normalized signal in the AP assay (agonist mode) and (ii) between 10% and 80% reduction in the E2-normalized signal in the AP assay (antagonist mode)) |

From patent US20260055103A1, “2,3,4,9-TETRAHYDRO-1H-PYRIDO[3,4-B]INDOLE DERIVATIVES AS ESTROGEN RECEPTOR MODULATORS FOR THE TREATMENT OF CANCER” (Olema Pharmaceuticals, Inc., priority 2022, published 2026)
